{"source": "patent US8952157B2", "about": "“Apoptosis-inducing agents for the treatment of cancer and immune and autoimmune diseases” (AbbVie Inc., priority 2008, dated 2015)", "data": [{"target": "GST-Bcl-2 (Homo sapiens (Human), UniProt P10415)", "sequence (P10415 whole entry)": "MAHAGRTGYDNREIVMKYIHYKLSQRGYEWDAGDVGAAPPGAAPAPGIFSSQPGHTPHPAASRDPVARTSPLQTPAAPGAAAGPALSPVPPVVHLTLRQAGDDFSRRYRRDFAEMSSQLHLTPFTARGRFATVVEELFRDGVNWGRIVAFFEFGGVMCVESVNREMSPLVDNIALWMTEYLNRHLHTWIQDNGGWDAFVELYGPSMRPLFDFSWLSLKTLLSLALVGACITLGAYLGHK", "experiment": "Time Resolved-Fluorescence Resonance Energy Transfer (TR-FRET) Bcl-2 binding assay", "conditions": "GST-Bcl-2 1 nM, F-Bak peptide probe 100 nM, Tb-anti-GST antibody 1 nM; Ki by Wang's equation", "summary_of_the_method": "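Competition TR-FRET: GST-Bcl-2 with fluorescent Bak peptide probe and Tb-anti-GST antibody, compounds serially diluted from 50 μM (2× start, 10% DMSO).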", "units": {"Ki": "nM"}, "values": [{"compound": "CC1(C)CCC(CN2CCN(c3ccc(C(=O)NS(=O)(=O)c4ccc(NC5CCN(CC6CC6)CC5)c([N+](=O)[O-])c4)c(Oc4cccc(Cl)c4)c3)CC2)=C(c2ccc(Cl)cc2)C1", "note": "[Example 187, 2-(3-chlorophenoxy)-4-(4-{[2-(4-chlorophenyl)-4,4-dimethylcyclohex-1-en-1-yl]methyl}piperazin-1-yl)-N-[(4-{[1-(cyclopropylmethyl)piperidin-4-yl]amino}-3-nitrophenyl)sulfonyl]benzamide]", "Ki": 0.054}, {"compound": "CN1CCC(Nc2ccc(S(=O)(=O)NC(=O)c3ccc(N4CCN(CC5=C(c6ccc(Cl)cc6)CC(C)(C)OC5)CC4)cc3Oc3cccc(Br)c3)cc2[N+](=O)[O-])CC1", "note": "[Example 160, 2-(3-bromophenoxy)-4-(4-{[4-(4-chlorophenyl)-6,6-dimethyl-5,6-dihydro-2H-pyran-3-yl]methyl}piperazin-1-yl)-N-({4-[(1-methylpiperidin-4-yl)amino]-3-nitrophenyl}sulfonyl)benzamide]", "Ki": 0.028}, {"compound": "CC1(C)CCC(CN2CCN(c3ccc(C(=O)NS(=O)(=O)c4ccc(NC[C@@H]5CCCOC5)c([N+](=O)[O-])c4)c(Oc4cc5cc[nH]c5cc4F)c3)CC2)=C(c2ccc(Cl)cc2)C1", "note": "[Example 258, 4-(4-{[2-(4-chlorophenyl)-4,4-dimethylcyclohex-1-en-1-yl]methyl}piperazin-1-yl)-2-[(6-fluoro-1H-indol-5-yl)oxy]-N-[(3-nitro-4-{[(3S)-tetrahydro-2H-pyran-3-ylmethyl]amino}phenyl)sulfonyl]benzamide]", "Ki": 0.083}, {"compound": "CC1(C)CCC(CN2CCN(c3ccc(C(=O)NS(=O)(=O)c4ccc(NCC5CCOCC5)c([N+](=O)[O-])c4)c(Oc4ccc(NS(C)(=O)=O)nc4)c3)CC2)=C(c2ccc(Cl)cc2)C1", "note": "[Example 356, 4-(4-{[2-(4-chlorophenyl)-4,4-dimethylcyclohex-1-en-1-yl]methyl}piperazin-1-yl)-2-({6-[(methylsulfonyl)amino]pyridin-3-yl}oxy)-N-({3-nitro-4-[(tetrahydro-2H-pyran-4-ylmethyl)amino]phenyl}sulfonyl)benzamide]", "Ki": 2.82}, {"compound": "CN1CCC(Nc2ccc(S(=O)(=O)NC(=O)c3ccc(N4CCN(CC5=C(c6ccc(Cl)cc6)CC(C)(C)CC5)CC4)cc3Oc3ccc(N)c(Cl)c3)cc2[N+](=O)[O-])CC1", "note": "[Example 40, 2-(4-amino-3-chlorophenoxy)-4-(4-((2-(4-chlorophenyl)-4,4-dimethylcyclohex-1-en-1-yl)methyl)piperazin-1-yl)-N-((4-((1-methylpiperidin-4-yl)amino)-3-nitrophenyl)sulfonyl)benzamide]", "Ki": 0.019}, {"compound": "CN(C)CCCNc1ccc(S(=O)(=O)NC(=O)c2ccc(N3CCN(Cc4ccccc4-c4ccc(Cl)cc4)CC3)cc2Oc2cccc3c2ccn3C)cc1[N+](=O)[O-]", "note": "[Example 16, 4-(4-((4′-chloro-1,1′-biphenyl-2-yl)methyl)piperazin-1-yl)-N-((4-((3-(dimethylamino)propyl)amino)-3-nitrophenyl)sulfonyl)-2-((1-methyl-1H-indol-4-yl)oxy)benzamide]", "Ki": 3.04}, {"compound": "CC1(C)CC(c2ccc(Cl)cc2)=C(CN2CCN(c3ccc(C(=O)NS(=O)(=O)c4ccc(NC5CCC(N6CCOCC6)CC5)c([N+](=O)[O-])c4)c(Oc4cc5cc[nH]c5cc4F)c3)CC2)CO1", "note": "(centres unmarked) [Example 295, 4-(4-{[4-(4-chlorophenyl)-6,6-dimethyl-5,6-dihydro-2H-pyran-3-yl]methyl}piperazin-1-yl)-2-[(6-fluoro-1H-indol-5-yl)oxy]-N-({4-[(4-morpholin-4-ylcyclohexyl)amino]-3-nitrophenyl}sulfonyl)benzamide]", "Ki": 0.077}, {"compound": "CC1(C)CCC(CN2CCN(c3ccc(C(=O)NS(=O)(=O)c4ccc(NN5CCOCC5)c([N+](=O)[O-])c4)c(Oc4cccc(Cl)c4)c3)CC2)=C(c2ccc(Cl)cc2)C1", "note": "[Example 253, 2-(3-chlorophenoxy)-4-(4-{[2-(4-chlorophenyl)-4,4-dimethylcyclohex-1-en-1-yl]methyl}piperazin-1-yl)-N-{[4-(morpholin-4-ylamino)-3-nitrophenyl]sulfonyl}benzamide]", "Ki": 0.05}, {"compound": "CC1(C)CCC(CN2CCN(c3ccc(C(=O)NS(=O)(=O)c4ccc(N[C@@H]5CCN(C(CF)CF)C5)c([N+](=O)[O-])c4)c(Oc4cc5cc[nH]c5cc4F)c3)CC2)=C(c2ccc(Cl)cc2)C1", "note": "[Example 357, 4-(4-{[2-(4-chlorophenyl)-4,4-dimethylcyclohex-1-en-1-yl]methyl}piperazin-1-yl)-N-{[4-({(3R)-1-[2-fluoro-1-(fluoromethyl)ethyl]pyrrolidin-3-yl}amino)-3-nitrophenyl]sulfonyl}-2-[(6-fluoro-1H-indol-5-yl)oxy]benzamide]", "Ki": 0.177}, {"compound": "CC1(C)CCC(CN2CCN(c3ccc(C(=O)NS(=O)(=O)c4ccc(NN5CCOCC5)c([N+](=O)[O-])c4)c(Oc4cc5cc[nH]c5cc4F)c3)CC2)=C(c2ccc(Cl)cc2)C1", "note": "[Example 252, 4-(4-{[2-(4-chlorophenyl)-4,4-dimethylcyclohex-1-en-1-yl]methyl}piperazin-1-yl)-2-[(6-fluoro-1H-indol-5-yl)oxy]-N-{[4-(morpholin-4-ylamino)-3-nitrophenyl]sulfonyl}benzamide]", "Ki": 1.15}, {"compound": "N#Cc1cccc(Oc2cc(N3CCN(Cc4ccccc4-c4ccc(Cl)cc4)CC3)ccc2C(=O)NS(=O)(=O)c2ccc(NCC3CCOCC3)c([N+](=O)[O-])c2)c1", "note": "[Example 22, 4-(4-((4′-chloro-1,1′-biphenyl-2-yl)methyl)piperazin-1-yl)-2-(3-cyanophenoxy)-N-((3-nitro-4-((tetrahydro-2H-pyran-4-ylmethyl)amino)phenyl)sulfonyl)benzamide]", "Ki": 5.46}, {"compound": "CC1(C)CCC(CN2CCN(c3ccc(C(=O)NS(=O)(=O)c4ccc(NC5CCN(C6CCOCC6)CC5)c([N+](=O)[O-])c4)c(Oc4cc5cc[nH]c5cc4F)c3)CC2)=C(c2ccc(Cl)cc2)C1", "note": "[Example 193, 4-(4-{[2-(4-chlorophenyl)-4,4-dimethylcyclohex-1-en-1-yl]methyl}piperazin-1-yl)-2-[(6-fluoro-1H-indol-5-yl)oxy]-N-({3-nitro-4-[(1-tetrahydro-2H-pyran-4-ylpiperidin-4-yl)amino]phenyl}sulfonyl)benzamide]", "Ki": 0.064}, {"compound": "CC1(C)CCC(CN2CCN(c3ccc(C(=O)NS(=O)(=O)c4ccc(NCCCN5CCOCC5)c(S(=O)(=O)C(F)(F)F)c4)c(Oc4cnc(N)c(Cl)c4)c3)CC2)=C(c2ccc(Cl)cc2)C1", "note": "[Example 347, 2-[(6-amino-5-chloropyridin-3-yl)oxy]-4-(4-{[2-(4-chlorophenyl)-4,4-dimethylcyclohex-1-en-1-yl]methyl}piperazin-1-yl)-N-({4-[(3-morpholin-4-ylpropyl)amino]-3-[(trifluoromethyl)sulfonyl]phenyl}sulfonyl)benzamide]", "Ki": 0.377}, {"compound": "Cc1cc2cc(Oc3cc(N4CCN(CC5=C(c6ccc(Cl)cc6)CC(C)(C)CC5)CC4)ccc3C(=O)NS(=O)(=O)c3ccc(NCCCN4CCOCC4)c([N+](=O)[O-])c3)ccc2[nH]1", "note": "[Example 4, 4-(4-((2-(4-chlorophenyl)-4,4-dimethylcyclohex-1-en-1-yl)methyl)piperazin-1-yl)-2-((2-methyl-1H-indol-5-yl)oxy)-N-((4-((3-morpholin-4-ylpropyl)amino)-3-nitrophenyl)sulfonyl)benzamide]", "Ki": 2.47}, {"compound": "CC1(C)CCC(CN2CCN(c3ccc(C(=O)NS(=O)(=O)c4ccc(NC5CCN(Cc6cscn6)CC5)c([N+](=O)[O-])c4)c(Oc4cc5cc[nH]c5cc4F)c3)CC2)=C(c2ccc(Cl)cc2)C1", "note": "[Example 245, 4-(4-{[2-(4-chlorophenyl)-4,4-dimethylcyclohex-1-en-1-yl]methyl}piperazin-1-yl)-2-[(6-fluoro-1H-indol-5-yl)oxy]-N-[(3-nitro-4-{[1-(1,3-thiazol-4-ylmethyl)piperidin-4-yl]amino}phenyl)sulfonyl]benzamide]", "Ki": 0.48}, {"compound": "CC1(C)CCC(CN2CCN(c3ccc(C(=O)NS(=O)(=O)c4ccc(NCC5CCOCC5)c([N+](=O)[O-])c4)c(Oc4cc(N)nc(Br)c4)c3)CC2)=C(c2ccc(Cl)cc2)C1", "note": "[Example 379, 2-[(2-amino-6-bromopyridin-4-yl)oxy]-4-(4-{[2-(4-chlorophenyl)-4,4-dimethylcyclohex-1-en-1-yl]methyl}piperazin-1-yl)-N-({3-nitro-4-[(tetrahydro-2H-pyran-4-ylmethyl)amino]phenyl}sulfonyl)benzamide]", "Ki": 17.9}, {"compound": "CN1CCC(Nc2ccc(S(=O)(=O)NC(=O)c3ccc(N4CCN(CC5=C(c6ccc(Cl)cc6)CC(C)(C)CC5)CC4)cc3Oc3cc(F)cc4[nH]ccc34)cc2[N+](=O)[O-])CC1", "note": "[Example 209, 4-(4-{[2-(4-chlorophenyl)-4,4-dimethylcyclohex-1-en-1-yl]methyl}piperazin-1-yl)-2-[(6-fluoro-1H-indol-4-yl)oxy]-N-({4-[(1-methylpiperidin-4-yl)amino]-3-nitrophenyl}sulfonyl)benzamide]", "Ki": "< 0.01"}, {"compound": "CN(C)C(=O)CCc1ccccc1Oc1cc(N2CCN(Cc3ccccc3-c3ccc(Cl)cc3)CC2)ccc1C(=O)NS(=O)(=O)c1ccc(NCC2CCOCC2)c([N+](=O)[O-])c1", "note": "[Example 26, 4-(4-((4′-chloro-1,1′-biphenyl-2-yl)methyl)piperazin-1-yl)-2-(2-(3-(dimethylamino)-3-oxopropyl)phenoxy)-N-((3-nitro-4-((tetrahydro-2H-pyran-4-ylmethyl)amino)phenyl)sulfonyl)benzamide]", "Ki": 0.511}, {"compound": "4-(4-{[4-(4-chlorophenyl)-6,6-dimethyl-5,6-dihydro-2H-pyran-3-yl]methyl)}piperazin-1-yl)-2-[(6-fluoro-1H-indol-5-yl)oxy]-N-({4-[(4-fluorotetrahydro-2H-pyran-4-yl)methoxy]-3-nitrophenyl}sulfonyl)benzamide [Example 297]", "Ki": "< 0.01"}, {"compound": "CN(C)CCCNc1ccc(S(=O)(=O)NC(=O)c2ccc(N3CCN(CC4=C(c5ccc(Cl)cc5)CC(C)(C)CC4)CC3)cc2Oc2cccc3[nH]cc(CN4CCN(C)CC4)c23)cc1[N+](=O)[O-]", "note": "[Example 213, 4-(4-{[2-(4-chlorophenyl)-4,4-dimethylcyclohex-1-en-1-yl]methyl}piperazin-1-yl)-N-[(4-{[3-(dimethylamino)propyl]amino}-3-nitrophenyl)sulfonyl]-2-({3-[(4-methylpiperazin-1-yl)methyl]-1H-indol-4-yl}oxy)benzamide]", "Ki": 0.031}]}]}
